Target: Solute carrier organic anion transporter family member 2A1 (Homo sapiens, UniProt Q92959)
Experiment: TP_TRANSPORTER: inhibition of PGE1 uptake (PGE1: 0.0004 uM) in PGT-expressing HeLa cells
Type: functional, cell-based

Row | Ki [nM] | SMILES
1 | 149 | O=C(O)CCC/C=C\C[C@@H]1[C@@H](CC[C@@H](O)CCc2ccccc2)[C@H](O)C[C@@H]1O [LATANOPROST ACID]
2 | > 10000 | CC(C)OC(=O)CCC/C=C\C[C@@H]1[C@@H](CC[C@@H](O)CCc2ccccc2)[C@H](O)C[C@@H]1O [LATANOPROST]
